Results as given in article PMC7558522, “Click-Free Synthesis of a Multivalent Tricyclic Peptide as a Molecular Transporter” (Pharmaceutics, 2020).
Values after ≈ are worked out from the molar mass of the structure shown. Read-outs that look alike come from different tables or passages of the source. *1 amine or outer side, *2 acyl side, *3 side chain or, on linkers, in order; H or OH if unused. Where a SMILES comes first, the peptide text is derived from it. Bridges are numbered along the chain shown (N, C = ends). Roman numbers before positions name the chains, in order. Suc = O=C(CCC(=O)[*:2])[*:1]

Key:
MRSA (LAC Clone) = test: microbe, parasite or virus in culture; type: cell-based, Methicillin-resistant Staphylococcus aureus
Description: (§1) The selected strains of bacteria, MRSA (Los Angeles County (LAC) clone), E. coli (ATCC 25922), Pseudomonas aeruginosa (ATCC 27883), and Klebsiella pneumoniae (ATCC BAA 1705) were cultured according to the guidelines of the Clinical Laboratory Standards Institute (CLSI) guidelines. MIC values were determined using microbroth dilution assay. Tricyclic peptide 20 was used to evaluate antibacterial activity in comparison to positive controls, such as Meropenem for Gram-negative bacteria and c[R4W4] for Gram-positive bacteria. Bacterial strains were inoculated into LB (5 mL) and shaken in an orbital shaker at 175 rpm overnight at 37 °C. The cultured suspension was immediately diluted to get turbidity of 0.5 McFarland (1.5 × 10^8 bacterial cell CFU/mL) using normal saline. The test compounds (tricyclic peptide 20, Meropenem, and c[R4W4]) were dissolved in 5% dimethyl sulfoxide (DMSO) to generate 256 µg/mL solutions. 200 µL of tricyclic peptide 20, and controls were added to the first column of the 96 well plates, and a twofold serial dilution was performed with the addition of 100 µL of bacterial culture media to the other wells. […] Bacterial solution (100 µL) was added to all the wells and incubated statically at 37 °C overnight. The minimum concentration at which bacterial growth was not visible to eyes were reported as MICs and experiments were performed in triplicate.

[1] = system: Klebsiella pneumoniae (ATCC BAA 1705); test: microbe, parasite or virus in culture; type: cell-based
Description: as §1

[2] = system: Pseudomonas aeruginosa (ATCC 27883); test: microbe, parasite or virus in culture; type: cell-based
Description: as §1

E. coli (ATCC 25922) = test: microbe, parasite or virus in culture; type: cell-based, Escherichia coli
Description: as §1

[3] = system: MRSA, Klebsiella pneumoniae, Pseudomonas aeruginosa, and E. coli; type: cell-based; conditions: range over the four strains, microbroth dilution
Description: as §1

MDA-MB-231 cells = type: cell-based, Human
Description: Human breast cancer (MDA-MB-231) cell line was grown on 75 cm^2 cell culture flasks with Dulbecco’s modified eagle’s medium (DMEM) medium, supplemented with 10% fetal bovine serum (FBS), and 1% penicillin-streptomycin solution (10,000 units of penicillin and 10 mg of streptomycin in 0.9% NaCl) in a humidified atmosphere of 5% CO2, 95% air at 37 °C. CellTiter 96® Aqueous (Promega, Madison, WI, USA) one solution cell proliferation assay (MTS) was utilized to evaluate MDA-MB-231 cell viability. Cells were seeded into 96-well plate (10^4 cells/100 μL) in complete media and incubated overnight at 37 °C with 5% CO2. Different concentrations (0−300 μM) of the peptide solution (10 μL) were added to wells to make the final concentrations of the peptide (0−30 μM). The cells were incubated again (37 °C, 5% CO2) for 24 h, then MTS reagent (20 μL) was added to each well followed by incubation for 2 h under the same condition. The absorbance of the resulting solution was evaluated at 490 nm using a microplate reader to detect the live cells. Cells without peptide were considered as a control. DMSO (30% v/v) was used as a positive control. The compound was used in aqueous solution. All the tests were performed in triplicate.

C[C@@H](O)[C@H]1C(=O)N2C(C(=O)O)=C(S[C@@H]3CN[C@H](C(=O)N(C)C)C3)[C@H](C)[C@H]12 [Meropenem]
MIC (MRSA (LAC Clone); Staphylococcus aureus, MRSA, microbroth dilution, incubated overnight at 37 °C, growth not visible to eyes, performed in triplicate, read-out: MIC): 4 µg/mL (≈ 10.4 µM)
MIC ([1]; Klebsiella pneumoniae, BAA1705, microbroth dilution, incubated overnight at 37 °C, growth not visible to eyes, performed in triplicate, read-out: MIC): 32 µg/mL (≈ 83.4 µM)
MIC ([2]; Pseudomonas aeruginosa, ATCC27883, microbroth dilution, incubated overnight at 37 °C, growth not visible to eyes, performed in triplicate, read-out: MIC): 1 µg/mL (≈ 2.61 µM)
MIC (E. coli (ATCC 25922); Escherichia coli, ATCC25922, microbroth dilution, incubated overnight at 37 °C, growth not visible to eyes, performed in triplicate, read-out: MIC): 8 µg/mL (≈ 20.9 µM)

N=C(N)NCCC[C@@H]1NC(=O)[C@H](Cc2c[nH]c3ccccc23)NC(=O)[C@H](CCCNC(=N)N)NC(=O)[C@H](Cc2c[nH]c3ccccc23)NC(=O)[C@H](CCCCNC(=O)CCC(=O)NCCCC[C@@H]2NC(=O)[C@H](CCCNC(=N)N)NC(=O)[C@H](Cc3c[nH]c4ccccc34)NC(=O)[C@H](CCCNC(=N)N)NC(=O)[C@H](Cc3c[nH]c4ccccc34)NC(=O)[C@H](CCCNC(=N)N)NC(=O)[C@H](Cc3c[nH]c4ccccc34)NC(=O)[C@H](CCCNC(=N)N)NC(=O)[C@H](Cc3c[nH]c4ccccc34)NC2=O)NC(=O)[C@H](CCCNC(=N)N)NC(=O)[C@H](Cc2c[nH]c3ccccc23)NC(=O)[C@H](CCCNC(=N)N)NC(=O)[C@H](Cc2c[nH]c3ccccc23)NC(=O)[C@H](CCCCNC(=O)CCC(=O)NCCCC[C@@H]2NC(=O)[C@H](CCCNC(=N)N)NC(=O)[C@H](Cc3c[nH]c4ccccc34)NC(=O)[C@H](CCCNC(=N)N)NC(=O)[C@H](Cc3c[nH]c4ccccc34)NC(=O)[C@H](CCCNC(=N)N)NC(=O)[C@H](Cc3c[nH]c4ccccc34)NC(=O)[C@H](CCCNC(=N)N)NC(=O)[C@H](Cc3c[nH]c4ccccc34)NC2=O)NC1=O [Tricyclic peptide 20] (I: cyclo(KWRWRKWRWR) / II: cyclo(KWRWRWRWR) / III: cyclo(KWRWRWRWR); linker I:1-III:1, I:6-II:1 via Suc)
MIC (MRSA (LAC Clone); LAC Clone): 64 µg/mL (≈ 13.4 µM)
MIC ([1]; ATCC BAA 1705): 128 µg/mL (≈ 26.7 µM)
MIC ([2]; ATCC 27883): 128 µg/mL (≈ 26.7 µM)
MIC (E. coli (ATCC 25922); ATCC 25922): 64 µg/mL (≈ 13.4 µM)
MIC (range over MRSA, K. pneumoniae, P. aeruginosa, E. coli) [3]: 64 to 128 µg/mL
cell viability (MDA-MB-231 cells; 25 µM): more than 97%
cell viability (MDA-MB-231 cells; 30 µM): 92%

N=C(N)NCCC[C@@H]1NC(=O)[C@H](CCCNC(=N)N)NC(=O)[C@H](CCCNC(=N)N)NC(=O)[C@H](Cc2c[nH]c3ccccc23)NC(=O)[C@H](Cc2c[nH]c3ccccc23)NC(=O)[C@H](Cc2c[nH]c3ccccc23)NC(=O)[C@H](Cc2c[nH]c3ccccc23)NC(=O)[C@H](CCCNC(=N)N)NC1=O [c[R4W4]] (cyclo(RRRRWWWW))
MIC (MRSA (LAC Clone); LAC Clone): 4 µg/mL (≈ 2.92 µM)
MIC ([1]; ATCC BAA 1705): 32 µg/mL (≈ 23.4 µM)
MIC ([2]; ATCC 27883): 64 µg/mL (≈ 46.7 µM)
MIC (E. coli (ATCC 25922); ATCC 25922): 16 µg/mL (≈ 11.7 µM)
